Experiments:
Aspergillus niger = assay: Antifungal activity of herbal black dye (disc, inhibition zone); type: cell-based; conditions: 25 mg/disc
Candida albicans = assay: as above; type: cell-based; conditions: 25 mg/disc

`COC1=CC(=O)C[C@@H](C)[C@]12Oc1c(Cl)c(OC)cc(OC)c1C2=O` [Griseofulvin] was tested, and the inhibition zone (Aspergillus niger) was 10 mm and the inhibition zone (Candida albicans) was 8 mm.

Source: patent US20060143838A1, “Herbal dye and process of preparation thereof” (COUNCIL OF SCIENTIFIC & INDUSTRIAL RESEARCH, priority 2004, published 2006)
